The target of assay [1] is T1, NACHT, LRR and PYD domains-containing protein 3 (Homo sapiens, UniProt Q96P20). As to the kind of experiment: Inhibition of NLRP3 in human PBMC assessed as reduction in LPS-induced TNF level preincubated for 30 mins followed by LPS-stimulation and measured after 6 hrs by MSD assay. The class given is cell-based.
Assay [2] deals with T1, NACHT, LRR and PYD domains-containing protein 3. The experiment in a line: Inhibition of NLRP3 in human PBMC assessed as reduction in LPS-induced IL-1beta level preincubated for 30 mins followed by LPS-stimulation and measured after 6 hrs by MSD assay. The class given is cell-based.

The text below walks through data of ChEMBL document CHEMBL5365546, “The Potential of NOD-like Receptor Protein 3 Inflammasome Inhibitors in the Treatments of Diseases” (ACS Med Chem Lett, 2023).

One may read the AC50 as the midpoint of the concentration-response curve, whichever way the signal moves.

Molecules are shown by their SMILES.

T1 sequence (Q96P20 whole entry, the tested form may be a part): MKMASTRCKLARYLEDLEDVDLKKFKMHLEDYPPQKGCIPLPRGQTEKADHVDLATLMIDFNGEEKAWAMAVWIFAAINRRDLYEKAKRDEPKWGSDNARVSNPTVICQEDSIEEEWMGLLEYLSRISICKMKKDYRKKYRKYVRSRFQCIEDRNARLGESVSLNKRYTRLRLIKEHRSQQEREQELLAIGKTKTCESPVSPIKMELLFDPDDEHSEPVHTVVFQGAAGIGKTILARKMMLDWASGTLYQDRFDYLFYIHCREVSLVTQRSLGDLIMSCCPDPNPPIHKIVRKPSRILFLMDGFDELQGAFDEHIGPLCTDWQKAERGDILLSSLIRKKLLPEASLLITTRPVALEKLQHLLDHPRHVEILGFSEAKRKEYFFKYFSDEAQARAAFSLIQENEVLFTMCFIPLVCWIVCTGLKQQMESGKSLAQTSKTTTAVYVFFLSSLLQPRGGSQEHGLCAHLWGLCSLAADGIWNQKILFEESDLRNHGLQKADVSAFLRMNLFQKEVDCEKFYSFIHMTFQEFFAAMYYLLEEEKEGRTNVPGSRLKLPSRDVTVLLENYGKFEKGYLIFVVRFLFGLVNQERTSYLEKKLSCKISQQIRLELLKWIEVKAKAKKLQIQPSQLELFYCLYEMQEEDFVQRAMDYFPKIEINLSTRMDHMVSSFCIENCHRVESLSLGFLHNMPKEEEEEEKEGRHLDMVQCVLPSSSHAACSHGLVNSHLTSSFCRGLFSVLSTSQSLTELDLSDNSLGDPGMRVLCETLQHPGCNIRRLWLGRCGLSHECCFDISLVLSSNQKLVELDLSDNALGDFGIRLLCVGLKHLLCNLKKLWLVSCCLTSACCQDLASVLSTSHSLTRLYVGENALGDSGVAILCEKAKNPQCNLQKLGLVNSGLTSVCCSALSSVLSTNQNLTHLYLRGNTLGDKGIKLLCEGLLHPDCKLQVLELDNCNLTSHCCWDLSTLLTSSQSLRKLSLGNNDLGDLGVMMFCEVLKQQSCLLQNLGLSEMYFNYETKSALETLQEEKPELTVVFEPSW

On to `CC(C)c1nn(CC(=O)Nc2ccc3nncn3c2)c(=O)cc1N1CC[C@@H]2C[C@@H]2C1`, for which the values for the AC50 in assay [1] and in assay [2] were greater than 20 µM and 500 nM, respectively.

`CC(C)c1nn(CC(=O)Nc2ccc3nncn3c2)c(=O)cc1N1CCCC1Cc1ccccn1` (stereo not given): the results for the AC50 in assay [1] and in assay [2] were greater than 20 µM and 1280 nM, respectively.

`CC(C)c1nn(CC(=O)Nc2ccc3nncn3c2)c(=O)cc1N1C2CCC1CC2`: the values for the AC50 in assay [1] and in assay [2] were greater than 10 µM and 1020 nM, respectively.

Regarding `CC(C)c1nn(CC(=O)Nc2ccc3nncn3c2)c(=O)cc1Nc1ccccc1`, the AC50 in assay [1] was greater than 10 µM; in assay [2], greater than 15000 nM.

For `CC(C)c1nn(CC(=O)Nc2ccc3nncn3c2)c(=O)cc1NCC1CC1`, the AC50 in assay [1] was greater than 10 µM; in assay [2], 1530 nM.

In the case of `CC(C)c1nn(CC(=O)Nc2ccc3nncn3c2)c(=O)cc1N1CC[C@@H](F)C1`, the AC50 is greater than 10 µM in assay [1] and 530 nM in assay [2].

Regarding `CC(C)c1nn(CC(=O)Nc2ccc3nncn3c2)c(=O)cc1N1CC[C@H](C)C1`, the AC50 in assay [1] was greater than 20 µM; in assay [2], 420 nM.

With `CC(C)c1nn(CC(=O)Nc2ccc3nncn3c2)c(=O)cc1N1CCCCC1`, the AC50 in assay [1] is greater than 20 µM; in assay [2] it was 1230 nM.

Take `CC(C)c1nn(CC(=O)Nc2ccc3nncn3c2)c(=O)cc1N1CCCC1`: the AC50 in assay [1] was greater than 10 µM; in assay [2], 330 nM.

Consider `CC(C)c1nn(CC(=O)Nc2ccc3nncn3c2)c(=O)cc1N1CC2CC2C1` (stereo not given), for which the results for the concentration at half-maximal activity (AC50) in assay [1] and in assay [2] were greater than 10 µM and 90 nM, respectively.
